Results published in patent US20100104625A1, “BIODEGRADABLE COMPOSITIONS AND MATERIALS” (CORNELL UNIVERSITY, priority 2007, published 2010).

Experiment: Sessile contact angle of water on lipid pellet surface
Assay type: physicochemical
Conditions: pellets fabricated from each lipid
Method: Particle characterization. Particle morphology and size were studied at low voltage (5 kV) using scanning electron microscopy imaging (LEICA 440) after coating with palladium. Surface charge measurements on samples suspended in 1:10 diluted PBS were carried out using a Malvern Zetasizer-Nano ZS (Malvern, UK). A PRECO Hydraulic press (Los Angles, Calif.) was used to make lipid pellets with approximate surface area of 25 mm^2. For contact angle measurements, a ramé-hart contact angle goniometer (100-FO) was used to measure the sessile contact angle of water on a lipid pellet surface. Unless otherwise stated, measurements were taken in triplicate.

Hydrophobicity by contact angle of water on lipid surfaces: least hydrophobic
Compound: CCCCCCCC(=O)OCC(=O)COC(=O)CCCCCCC [C8]
